Common to all, as to format: cell-based
Test [1] relates to p27 protein. The test is described as follows: p27 protein induction test (Western blotting). The conditions noted are these: test substance (0.1 1M), 24 hrs, ACHN cells or HT-29 cells, compared to DMSO, n=2. How it is done:
ACHN cells or HT-29 cells were cultured in a 6 well plate at 2.5×10^5 cells/1.8 mL/well for 24 hrs, a test substance ([…]) dissolved in DMSO was added. After 24 hrs, cells were detached using trypsin-EDTA (ethylene diamine tetraacetic acid) and solubilized with NuPAGE LDS sample buffer (Invitrogen). Using an RC DC protein assay kit (BIO-RAD), the protein concentration of the sample was quantitated, and a sample in an amount corresponding to 10 μg of BSA (bovine serum albumin) was analyzed by Western blotting using an anti-p27 antibody. The density of the band stained with the anti-p27 antibody was measured by a densitometer to quantify the amount of p27 protein. As a control, DMSO was used and the test was performed with n=2 and the average protein amount was determined.
Background: A western blot detects proteins with antibodies after separation by electrophoresis.

The subject of test [2] is Renal cancer cell line ACHN cell. The test is described as follows: Growth inhibitory effect against cancer cell lines (3H-thymidine uptake), ACHN. How it is done: Renal cancer cell line ACHN cell or colorectal cancer cell line HT-29 cells were cultured in a 96 well plate at 1.0×10^4 cells/90 μL/well for 24 hrs, then a test substance dissolved in DMSO (dimethyl sulfoxide) was added. After 18 hrs, ^3H-thymidine (0.25 μCi/well) was added and the cells were cultured for 6 hrs. Using a cell harvester, the cells were recovered on a UniFilter-96 GF/B glass filter and the ^3H radioactivity uptaken by the cells was measured by TopCount (Packard). As a control, DMSO was used and the activity of the test substance was expressed in the concentration (IC50) necessary for inhibiting ^3H radioactivity uptaken by the cell to 50% of that of the control group. The measurements were made in triplicate.

The subject of test [3] is colorectal cancer cell line HT-29 cells. Description: Growth inhibitory effect against cancer cell lines (3H-thymidine uptake), HT-29. The conditions noted are these: test substance 18 hrs, then 3H-thymidine 6 hrs, triplicate. The gist of the method: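 Cells seeded at 1.0×10^4/well, grown 24 hrs, then exposed to compound in DMSO for 18 hrs before 6 hrs pulse with ^3H-thymidine (0.25 μCi/well). Harvested cell-incorporated radioactivity counted; IC50 is the concentration halving uptake versus DMSO control, triplicate.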

Test [4] relates to p15 protein. The test is described as follows: Evaluation of p15 induction activity (Western blotting). The conditions noted are these: test substance 0.1 μM, 24 hrs, ACHN cells or HT-29 cells, compared to DMSO, n=2. An outline of the steps:
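p15 protein quantified by densitometry of anti-p15 Western blots (10 μg protein per lane, mean of n=2). Samples came from HT-29 or ACHN cells given 0.1 μM compound for 24 h after 24 h plating, with DMSO as control.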

Where [5] appears, read: Homo sapiens, HT-29, inhibition of 3H-thymidine uptake.

The source of these data is US20180273531A1, “PYRIMIDINE COMPOUND AND MEDICAL USE THEREOF” (Japan Tobacco Inc., priority 2004, published 2018).

A word on the fold induction: it is the ratio of treated to control signal. Read a low fold induction as little rise in signal. The IC50 is the midpoint of a concentration-inhibition curve. A high value points to weaker potency in that assay.

For the molecule `Cn1c(=O)cc(Nc2ccc(Br)cc2F)c2c(=O)n(C3CC3)c(=O)n(-c3cccc(NS(C)(=O)=O)c3)c21` [Example 1-1, N-{3-[5-(4-bromo-2-fluoro-phenylamino)-3-cyclopropyl-8-methyl-2,4,7-trioxo-3,4,7,8-tetrahydro-2H-pyrido[2,3-d]pyrimidin-1-yl]phenyl}-methanesulfonamide], the fold induction at 0.1 µM in test [1] and in test [4] was not below 1.5 throughout. The IC50 is 10 to 100 nM in test [2] (Homo sapiens, ACHN) and less than 10 nM in test [3] (setting [5]).
`Cc1cc(N(C)C)ccc1Nc1cc(=O)n(C)c2c1c(=O)n(C1CC1)c(=O)n2-c1ccccc1F` [Example 1-142]: the fold induction at 0.1 µM in test [1] and in test [4] was not below 1.5 throughout. In test [3] (setting [5]), this molecule gave an IC50 of 100 to 1000 nM.
For `COc1ccc(Nc2cc(=O)n(C)c3c2c(=O)n(C2CC2)c(=O)n3-c2ccccc2)c(F)c1` [Example 1-175], the fold induction at 0.1 µM in test [1] and in test [4] was not below 1.5 in each case. In test [3] (setting [5]), this molecule came in with a half-inhibitory concentration (IC50) of 100 to 1000 nM.
For the molecule `CC(C)N1CCC(Nc2cc(=O)n(C)c3c2c(=O)n(C2CC2)c(=O)n3-c2ccccc2)CC1` [Example 1-182], the fold induction at 0.1 µM in test [1] was not below 1.5.
In the case of `COc1ccc(-n2c(=O)n(C3CC3)c(=O)c3c(Nc4ccc(Br)cc4F)cc(=O)n(C)c32)cc1` [Example 1-186], the fold induction at 0.1 µM in test [1] and in test [4] was not below 1.5 each time. The molecule also displayed a half-maximal inhibitory concentration (IC50) in test [3] (setting [5]) of 10 to 100 nM.
Regarding `CN(C)CCOc1cccc(-n2c(=O)n(C3CC3)c(=O)c3c(Nc4ccc(Br)cc4F)cc(=O)n(C)c32)c1` [Example 1-218], the fold induction at 0.1 µM in test [1] and in test [4] was not below 1.5 in each case. This molecule had an IC50 in test [3] (setting [5]) of 10 to 100 nM.
`CN(c1cccc(-n2c(=O)n(C3CC3)c(=O)c3c(Nc4ccc(Br)cc4F)cc(=O)n(C)c32)c1)S(C)(=O)=O` [Example 1-228] yielded a fold induction at 0.1 µM in test [1] not below 1.5. Further, the IC50 fell in the range of 100 to 1000 nM in test [2] (Homo sapiens, ACHN) and 10 to 100 nM in test [3] (setting [5]).
With `CN(C)CC#Cc1ccc(Nc2cc(=O)n(C)c3c2c(=O)n(C2CC2)c(=O)n3-c2ccccc2)c(F)c1` [Example 1-246], the IC50 fell in the range of 100 to 1000 nM in test [2] (Homo sapiens, ACHN) and 10 to 100 nM in test [3] (setting [5]). This molecule showed a fold induction at 0.1 µM in test [4] not below 1.5.
Consider `COCCN(C)c1cccc(-n2c(=O)n(C3CC3)c(=O)c3c(Nc4ccc(Br)cc4F)cc(=O)n(C)c32)c1` [Example 1-253], for which, in test [1], the fold induction at 0.1 µM is not below 1.5. The half-inhibitory concentration (IC50) in test [2] (Homo sapiens, ACHN) fell in the range of 100 to 1000 nM; in test [3] (setting [5]), 10 to 100 nM.
Consider `C#Cc1ccc(Nc2cc(=O)n(C)c3c2c(=O)n(C2CC2)c(=O)n3-c2cccc(S(C)(=O)=O)c2)c(F)c1` [Example 1-259], for which, in test [1], the fold induction at 0.1 µM is not below 1.5. In addition, the IC50 is 100 to 1000 nM in test [2] (Homo sapiens, ACHN) and less than 10 nM in test [3] (setting [5]).
The matching figures for `C#Cc1ccc(Nc2cc(=O)n(C)c3c2c(=O)n(C2CC2)c(=O)n3-c2cccc(NS(C)(=O)=O)c2)c(F)c1` [Example 1-260]: not below 1.5, less than 10 nM and less than 10 nM.
The like results for `CCS(=O)(=O)Nc1cccc(-n2c(=O)n(C3CC3)c(=O)c3c(Nc4ccc(Br)cc4F)cc(=O)n(C)c32)c1` [Example 1-262] were, in that order, not below 1.5, 10 to 100 nM and less than 10 nM.
The matching figures for `Cn1c(=O)cc(Nc2ccc(Br)cc2F)c2c(=O)n(C3CC3)c(=O)n(-c3cccc(NC(=O)CO)c3)c21` [Example 1-263]: not below 1.5, 100 to 1000 nM and less than 10 nM.
`CCS(=O)(=O)Nc1cccc(-n2c(=O)n(C3CC3)c(=O)c3c(Nc4ccc(I)cc4F)cc(=O)n(C)c32)c1` [Example 1-274]: the fold induction at 0.1 µM in test [1] is not below 1.5. The IC50 in test [2] (Homo sapiens, ACHN) was less than 10 nM; in test [3] (setting [5]) it was less than 10 nM.
Take `CCc1ccc(Nc2cc(=O)n(C)c3c2c(=O)n(C2CC2)c(=O)n3-c2cccc(NS(C)(=O)=O)c2)c(F)c1` [Example 1-275]: the fold induction at 0.1 µM in test [1] is not below 1.5. The half-maximal inhibitory concentration (IC50) in test [2] (Homo sapiens, ACHN) was 10 to 100 nM; in test [3] (setting [5]), less than 10 nM.
Molecule `CCCC(=O)Nc1cccc(-n2c(=O)n(C3CC3)c(=O)c3c(Nc4ccc(Br)cc4F)cc(=O)n(C)c32)c1` [Example 1-279] registered a fold induction at 0.1 µM in test [1] not below 1.5. In addition, the IC50 was in the range of 100 to 1000 nM in test [2] (Homo sapiens, ACHN) and 10 to 100 nM in test [3] (setting [5]).
The like results for `CCCCC(=O)NCCC(=O)Nc1cccc(-n2c(=O)n(C3CC3)c(=O)c3c(Nc4ccc(Br)cc4F)cc(=O)n(C)c32)c1` [Example 1-299] were, in that order, not below 1.5, 100 to 1000 nM and 10 to 100 nM.
The like results for `Cn1c(=O)cc(Nc2ccc(I)cc2)c2c(=O)n(C3CC3)c(=O)n(-c3cccc(NS(C)(=O)=O)c3)c21` [Example 1-302] were, in that order, not below 1.5, 10 to 100 nM and less than 10 nM.
The like results for `Cn1c(=O)cc(Nc2ccc(Br)cc2F)c2c(=O)n(C3CC3)c(=O)n(-c3cccc(NCCN4CCOCC4)c3)c21` [Example 1-303] were, in that order, not below 1.5, 100 to 1000 nM and 10 to 100 nM.
Turning to `CCNC(=O)Nc1cccc(-n2c(=O)n(C3CC3)c(=O)c3c(Nc4ccc(Br)cc4F)cc(=O)n(C)c32)c1` [Example 1-307], the fold induction at 0.1 µM in test [1] was not below 1.5. The concentration for half-maximal inhibition (IC50) in test [2] (Homo sapiens, ACHN) was in the range of 100 to 1000 nM; in test [3] (setting [5]), 10 to 100 nM.
`CN(C)S(=O)(=O)Nc1cccc(-n2c(=O)n(C3CC3)c(=O)c3c(Nc4ccc(Br)cc4F)cc(=O)n(C)c32)c1` [Example 1-309] displayed a fold induction at 0.1 µM in test [1] not below 1.5. Further, the IC50 in test [2] (Homo sapiens, ACHN) was 10 to 100 nM; in test [3] (setting [5]), less than 10 nM.
In test [1], `C#Cc1ccc(Nc2cc(=O)n(C)c3c2c(=O)n(C2CC2)c(=O)n3-c2cccc(NC(C)=O)c2)c(F)c1` [Example 1-310] returned a fold induction at 0.1 µM not below 1.5. Further, the IC50 in test [2] (Homo sapiens, ACHN) was 10 to 100 nM; in test [3] (setting [5]) it was less than 10 nM.
The like results for `CCCS(=O)(=O)Nc1cccc(-n2c(=O)n(C3CC3)c(=O)c3c(Nc4ccc(I)cc4F)cc(=O)n(C)c32)c1` [Example 1-311] were, in that order, not below 1.5, less than 10 nM and less than 10 nM.
Turning to `CN1CCN(S(=O)(=O)c2cccc(-n3c(=O)n(C4CC4)c(=O)c4c(Nc5ccc(Br)cc5F)cc(=O)n(C)c43)c2)CC1` [Example 1-315], in test [1], the fold induction at 0.1 µM is not below 1.5. For the same molecule, the half-maximal inhibitory concentration (IC50) in test [2] (Homo sapiens, ACHN) lay within 100 to 1000 nM; in test [3] (setting [5]), 10 to 100 nM.
The matching figures for `Cn1c(=O)cc(Nc2ccc(Br)cc2F)c2c(=O)n(C3CC3)c(=O)n(-c3cccc(S(=O)(=O)N4CCOCC4)c3)c21` [Example 1-316]: not below 1.5, 100 to 1000 nM and 10 to 100 nM.
Take `C#Cc1ccc(Nc2cc(=O)n(C)c3c2c(=O)n(C2CC2)c(=O)n3-c2cccc(NS(=O)(=O)C(C)C)c2)c(F)c1` [Example 1-321]: the concentration for half-maximal inhibition (IC50) was 10 to 100 nM in test [2] (Homo sapiens, ACHN) and less than 10 nM in test [3] (setting [5]). In addition, the fold induction at 0.1 µM in test [4] is not below 1.5.
Regarding `Cc1c(Nc2ccc(Br)cc2F)c2c(=O)n(C3CC3)c(=O)n(-c3cccc(NS(C)(=O)=O)c3)c2n(C)c1=O` [Example 1-333], the IC50 in test [2] (Homo sapiens, ACHN) was 10 to 100 nM; in test [3] (setting [5]) it was less than 10 nM. In test [4], the fold induction at 0.1 µM was not below 1.5.
With `CCS(=O)(=O)Nc1cccc(-n2c(=O)n(C3CC3)c(=O)c3c(Nc4ccc(Br)cc4F)n(C)c(=O)c(C)c32)c1` [Example 3-5], in test [1], the fold induction at 0.1 µM was not below 1.5. In addition, the IC50 is 10 to 100 nM in test [2] (Homo sapiens, ACHN) and less than 10 nM in test [3] (setting [5]).
Molecule `CC(=O)Nc1cc(-n2c(=O)n(C3CC3)c(=O)c3c(Nc4ccc(I)cc4F)n(C)c(=O)c(C)c32)ccc1F` [Example 4-99] returned a fold induction at 0.1 µM in test [1] not below 1.5. Also, the 50% inhibitory concentration (IC50) was 100 to 1000 nM in test [2] (Homo sapiens, ACHN) and less than 10 nM in test [3] (setting [5]).
Turning to `Cc1c(=O)n(C)c(Nc2ccc(I)cc2F)c2c(=O)n(C3CC3)c(=O)n(-c3ccc4c(c3)ncn4C)c12` [Example 4-111], the 50% inhibitory concentration (IC50) lay in the range of 100 to 1000 nM in test [2] (Homo sapiens, ACHN) and 10 to 100 nM in test [3] (setting [5]). Further, the fold induction at 0.1 µM in test [4] was not below 1.5.
Turning to `Cc1c(=O)n(C)c(Nc2ccc(I)cc2F)c2c(=O)n(C3CC3)c(=O)n(-c3ccc4c(c3)ncn4C)c12` [Example 4-112], the concentration for half-maximal inhibition (IC50) in test [2] (inhibition of 3H-thymidine uptake, test substance 18 hrs, then 3H-thymidine 6 hrs, triplicate) was 100 to 1000 nM; in test [3] (inhibition of 3H-thymidine uptake), less than 10 nM. Moreover, the “Induction of p15 protein” value in test [4] is recorded as “+ (As compared to DMSO, not less than 1.5-fold induction of p15 protein)”.
